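Results reflect a 48-hour exposure of cells in 96-well plates to compound at five concentrations. GI50 marks 50% less growth. Definition used: TGI = concentration required for complete inhibition of growth.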 Where only a bound is given, the exact number is not on record here.

Among the test systems are DLD-1 colon; HOP-18 NSCLC; LXFL 529 NSCLC; M19-MEL melanoma; RXF-631 renal; XF 498 CNS; MDA-N; DMS 273 small cell lung; BT-549 breast.
What all share (test): NCI anticancer screen, dose series, 48 h

`Cc1cccc2c1NC(c1c(C)[nH]c3ccccc13)C2` (stereo unspecified): the TGI in the assay on DLD-1 colon, in the assay on HOP-18 NSCLC, in the assay on LXFL 529 NSCLC, in the assay with M19-MEL melanoma, in the assay on RXF-631 renal and in the assay on XF 498 CNS was over 100 µM each time.

In the case of `O=C1/C=C(/c2ccc(O)cc2)[C@H](O)Cc2ccc(OC3OC(CO)C(O)C(O)C3O)cc2O1` (stereo partly specified) (tested in a mixture with another compound), the TGI in the assay on DLD-1 colon, with LXFL 529 NSCLC, with M19-MEL melanoma and in the assay with RXF-631 renal was over 100 µM in each case.

Take `NC(=O)c1ncn(C2CCC(CP(=O)(O)O)C2)c1N` (stereo unspecified): in the assay with MDA-N, the TGI is over 100 µM.

On to `O=C(N/C(=C\c1cc(Cl)ccc1Cl)c1nc2ccccc2[nH]1)c1ccccc1`, for which the TGI in the assay on DLD-1 colon is 37 µM; with LXFL 529 NSCLC it was over 100 µM; in the assay with M19-MEL melanoma, over 100 µM; with RXF-631 renal it was over 100 µM; with XF 498 CNS, 69 µM.

With `COc1cc2c3c(c1OC)C1(C=CC(=O)C=C1)CC3N(C(=O)OC(C)(C)C(Cl)(Cl)Cl)CC2` (stereo unspecified), the TGI was determined as 23.5 µM in the assay with DLD-1 colon; 24.5 µM in the assay on DMS 273 small cell lung; 50.4 µM with HOP-18 NSCLC; 82.9 µM in the assay with LXFL 529 NSCLC; 24.3 µM in the assay on M19-MEL melanoma; 23.9 µM in the assay on XF 498 CNS.

Regarding `CC(C)(C)NC(=O)C12C3C4C1C1C2C3C41I` (stereo unspecified), the TGI with DMS 273 small cell lung, in the assay on LXFL 529 NSCLC, with M19-MEL melanoma, in the assay with RXF-631 renal and in the assay on XF 498 CNS was over 100 µM each time.

Turning to `Clc1cc(Cl)c2n[se]nc2c1`, the TGI in the assay with DMS 273 small cell lung, in the assay on HOP-18 NSCLC, in the assay on M19-MEL melanoma and in the assay with RXF-631 renal was over 100 µM in each case.

On to `CC(=O)O/N=C1\C=Cc2c(no[n+]2[O-])C1=O`, for which, in the assay on MDA-N, the TGI came to 33.1 µM.

Consider `COc1cc(C=C2C(=O)OC(C)(C)OC2=O)cc(OC)c1OC`, for which the TGI in the assay with DLD-1 colon, in the assay on DMS 273 small cell lung, in the assay on HOP-18 NSCLC, in the assay on LXFL 529 NSCLC and in the assay with M19-MEL melanoma was over 100 µM each time.

Regarding `CC(=O)NC1=NC(=O)/C(=C/c2ccc(Cl)cc2Cl)N1C`, the TGI in the assay with BT-549 breast and with MDA-N was over 100 µM throughout.

Turning to `CC(C)CCC[C@@H](C)C1CCC2[C@@H]3CC=C4C[C@@H](OC(=O)CCC(=O)NCC[N+](C)(C)CCCS(=O)(=O)[O-])CC[C@]4(C)C3CC[C@@]21C` (stereo partly specified), the TGI in the assay with DLD-1 colon was 44.9 µM; in the assay on DMS 273 small cell lung, 28.5 µM; with HOP-18 NSCLC it was 97.2 µM; in the assay with LXFL 529 NSCLC, 71.6 µM; in the assay on M19-MEL melanoma, 33.4 µM.

Consider `COC1=CC(=O)c2c(O)c3c(c(O)c2C1=O)CC(C)(O)OC3` (stereo unspecified), for which the TGI in the assay on BT-549 breast turned out to be 18.7 µM; in the assay with MDA-N, 3.57 µM.

As for `CCCCCCCCOCC(O)COC` (stereo unspecified), the TGI in the assay with DLD-1 colon, in the assay with DMS 273 small cell lung, with HOP-18 NSCLC, in the assay on LXFL 529 NSCLC and in the assay with M19-MEL melanoma was over 100 µM in each case.

Consider `O=C1CCc2cc([N+](=O)[O-])ccc2O1`, for which the TGI with BT-549 breast and with MDA-N was over 100 µM each time.

Turning to `COc1ccc(/C=N\N2C(=O)Cc3ccccc32)cc1`, the TGI was over 100 µM with DLD-1 colon; over 100 µM with DMS 273 small cell lung; over 100 µM with HOP-18 NSCLC; over 100 µM with M19-MEL melanoma; 83.9 µM in the assay with XF 498 CNS.

Take `NC(=O)NC1=NCCC(=O)N1CCc1c[nH]c2ccccc12`: in the assay on MDA-N, the TGI was 60.1 µM.

As to `Cc1cc(C)c(-c2noc(-c3ccc(Cl)cc3)c2C2=NCCN2)c(C)c1`, the TGI with DLD-1 colon was 75.9 µM; with HOP-18 NSCLC, over 100 µM; in the assay on LXFL 529 NSCLC, 44.5 µM; in the assay on M19-MEL melanoma it was over 100 µM; in the assay with RXF-631 renal, over 100 µM; in the assay with XF 498 CNS it was 38.4 µM.

In the assay with MDA-N, `Cn1c(=O)c2[nH]c(Nc3ccccc3)nc2n(C)c1=O` gave a TGI of over 10 µM.

Regarding `COC1=C(NC(C)=O)C(=O)c2nc3n(c2C1=O)CCC3`, the TGI in the assay with DLD-1 colon was determined as 29.3 µM; in the assay on DMS 273 small cell lung, 34.6 µM; with HOP-18 NSCLC it was 39.1 µM; with MDA-N, 6.84 µM; in the assay on XF 498 CNS it was 33.6 µM.

`O=C(/C=C/c1ccccc1O)CC(=O)/C=C/c1ccccc1O`: the results for the TGI in the assay with BT-549 breast and in the assay with MDA-N were 45.7 µM and 13.3 µM, respectively.

Consider `c1ccc2c(c1)N=c1ccccc1=P21c2ccccc2Nc2ccccc21`, for which the TGI turned out to be 2.63 µM with BT-549 breast and 4.07 µM in the assay on MDA-N.

Regarding `NC(N)=Nc1nc2cc(N)ccc2o1`, the TGI with DLD-1 colon, in the assay with HOP-18 NSCLC, in the assay on M19-MEL melanoma and with RXF-631 renal was over 100 µM in each case.

Consider `COc1cc(OC)c(Oc2cccc(OC)c2OC)c(OC)c1`, for which the TGI in the assay on DLD-1 colon is over 100 µM; in the assay with DMS 273 small cell lung, over 100 µM; with HOP-18 NSCLC, 89.5 µM; in the assay on LXFL 529 NSCLC, over 100 µM; in the assay on M19-MEL melanoma, over 100 µM; in the assay with XF 498 CNS, over 100 µM.

Turning to `CC(CC(C)[C@H]1CCC2[C@H]3C(CC[C@@]21C)[C@@]1(C)CCC(O)C[C@H]1C[C@@H]3O)C(=O)O` (stereo partly specified), the TGI with BT-549 breast and in the assay on MDA-N was over 100 µM each time.

For the compound `O=C(O)CSc1ccn(Cc2ccccc2)c1`, the TGI in the assay on BT-549 breast and with MDA-N was over 100 µM throughout.

`Cc1ccc(NC(=O)C(=O)C2C(=O)C3=C(CC2(C)C)NC2C=CC=CC2S3)c(C)c1` (stereo unspecified): the TGI in the assay with BT-549 breast and with MDA-N was over 100 µM throughout.

Turning to `C=CC[n+]1c(/C=C2\Sc3ccccc3N2C)sc(-c2ccccc2)c1-c1ccccc1`, in the assay on BT-549 breast, the GI50 is 0.296 µM and the TGI is 0.907 µM.

Take `CC(C)n1c2c(c3ccccc3c1=O)C(=O)c1ccccc1-2`: the TGI with BT-549 breast and with MDA-N was over 100 µM throughout.

As for `COc1ccc2c(c1)Cc1cc(N=[N+]([O-])c3ccc4c(c3)Cc3cc(OC)ccc3-4)ccc1-2`, the TGI with BT-549 breast and in the assay on MDA-N was over 100 µM throughout.

As to `COC(=O)c1ccc2c(c1)[n+](=O)c(C(C)=O)c(C(F)(F)F)n2[O-]`, in the assay with BT-549 breast, the GI50 is 2.07 µM and the TGI turned out to be 4.51 µM.

Take `O=C(Nc1ccc(Cl)cc1Cl)c1c/c(=N\O)c2ccc(O)cc2o1`: the TGI in the assay on DLD-1 colon, in the assay with HOP-18 NSCLC, with LXFL 529 NSCLC, with M19-MEL melanoma and in the assay with RXF-631 renal was over 100 µM in each case.

`O=C(O)C(=O)/C=C\c1ccc(Cl)cc1`: the TGI with DLD-1 colon, in the assay on DMS 273 small cell lung, in the assay with HOP-18 NSCLC, with LXFL 529 NSCLC, in the assay with M19-MEL melanoma and in the assay with XF 498 CNS was over 100 µM in each case.

With `CCCCCCCC(=O)SCC/C=C/[C@@H]1CC(=O)NCc2cccc(n2)CN(Cc2ccc(Cl)cc2)CC(=O)N[C@@H](C(C)C)C(=O)O1`, in the assay with BT-549 breast, the GI50 was 37.1 µM and the TGI is over 100 µM.

As for `S=c1sc2ccccc2n1CN1CCN(Cc2ccccc2)CC1`, in the assay on BT-549 breast, the TGI was over 100 µM.

For `O=C(/C=C(\O)C(=O)O)/C=C(\O)c1ccc(Cl)cc1`, the TGI in the assay with DLD-1 colon, with DMS 273 small cell lung, with HOP-18 NSCLC, in the assay on LXFL 529 NSCLC, with M19-MEL melanoma and with XF 498 CNS was over 100 µM throughout.

For the compound `CCC(C)CNC1=C(NC(C)=O)C(=O)c2ccccc2C1=O` (stereo unspecified), the TGI in the assay with DLD-1 colon was over 100 µM; in the assay on DMS 273 small cell lung, over 100 µM; in the assay with LXFL 529 NSCLC, over 100 µM; in the assay on M19-MEL melanoma, 42.6 µM; in the assay on XF 498 CNS, over 100 µM.

As for `CCOC(=O)C(=C=Cc1cccs1)C(=O)c1ccccc1`, the TGI amounted to 27.8 µM in the assay with DLD-1 colon; 31.3 µM with DMS 273 small cell lung; 34 µM in the assay with HOP-18 NSCLC; 28.4 µM with LXFL 529 NSCLC; 32.1 µM with M19-MEL melanoma; 32.6 µM in the assay with XF 498 CNS.

As to `COc1ccc(-c2ccc(/C=N/n3cnn(CN4CCN(C)CC4)c3=S)o2)c([N+](=O)[O-])c1`, in the assay with BT-549 breast, the GI50 is 27.5 µM and the TGI was 91.8 µM.

For `c1cc(C2O[C@H]3CCCN3[C@@H]2c2ccncc2)ccn1` (stereo partly specified), the TGI with DLD-1 colon, with DMS 273 small cell lung, in the assay on LXFL 529 NSCLC, in the assay on M19-MEL melanoma and in the assay on XF 498 CNS was over 100 µM throughout.

As for `N=C(N)c1ccc(-c2ccc(-c3ccco3)o2)cc1`, in the assay on BT-549 breast, the GI50 is 5.9 µM and the TGI worked out at 19.8 µM.

`COC(=O)c1nc(N)[nH]c(=O)c1-c1ccc(Cl)cc1`: the TGI in the assay on DLD-1 colon, with DMS 273 small cell lung, in the assay on LXFL 529 NSCLC, in the assay with M19-MEL melanoma, in the assay on RXF-631 renal and in the assay with XF 498 CNS was over 100 µM throughout.

On to `CC(=O)OC1CC[C@@]2(C)C(CC(OC3OC(CO)C(O)C(O)C3O)[C@]3(C)C2CCC24CC23CC[C@H]4C(C)CC(O)[C@@H](O)C(C)(C)O)C1(C)C` (stereo partly specified), for which the TGI in the assay on DLD-1 colon was over 50 µM; in the assay on DMS 273 small cell lung, over 50 µM; in the assay on HOP-18 NSCLC it was 41 µM; with LXFL 529 NSCLC it was 16.1 µM; in the assay with M19-MEL melanoma, 16 µM; in the assay with RXF-631 renal, over 50 µM.
